From ChEMBL document CHEMBL1201862, “PubChem BioAssay data set” (2004)
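96-well plates; 48 h exposure; 5 concentrations. Endpoints by linear interpolation between flanking doses. Not reached: highest tested concentration assigned. GI50 = concentration required for 50% inhibition of growth.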 Calls of active or inactive are those of the source. No stated cut-off is given here; in the data, active = GI50 up to about 1.1 µM and inactive = higher.

Legend:
Test in all cases: NCI-60 cell line screen, 48 h
[1] = system: 786-0
[2] = system: A498
[3] = system: A549
[4] = system: ACHN
[5] = system: BT-549
[6] = system: CAKI-1
[7] = system: CCRF-CEM
[8] = system: COLO 205
[9] = system: DU-145
[10] = system: EKVX
[11] = system: HCC 2998
[12] = system: HCT-116
[13] = system: HCT-15
[14] = system: HL-60
[15] = system: HOP-62
[16] = system: HOP-92
[17] = system: HT-29
[18] = system: Hs-578T
[19] = system: IGROV-1
[20] = system: K562
[21] = system: KM12
[22] = system: LOX IMVI
[23] = system: M14
[24] = system: MCF7
[25] = system: MDA-MB-231
[26] = system: MDA-MB-435
[27] = system: MDA-N
[28] = system: MOLT-4
[29] = system: Malme-3M
[30] = system: NCI-H226
[31] = system: NCI-H23
[32] = system: NCI-H460
[33] = system: NCI-H522
[34] = system: NCI/ADR-RES
[35] = system: OVCAR-3
[36] = system: OVCAR-4
[37] = system: OVCAR-5
[38] = system: OVCAR-8
[39] = system: PC-3
[40] = system: RPMI-8226
[41] = system: RXF 393
[42] = system: SF-268
[43] = system: SF-295
[44] = system: SF-539
[45] = system: SK-MEL-28
[46] = system: SK-MEL-2
[47] = system: SK-MEL-5
[48] = system: SK-OV-3
[49] = system: SN12C
[50] = system: SNB-19
[51] = system: SNB-75
[52] = system: SR
[53] = system: SW-620
[54] = system: T47D
[55] = system: TK-10
[56] = system: U-251
[57] = system: UACC-257
[58] = system: UACC-62
[59] = system: UO-31

`CCN(CC)/[N+]([O-])=N/OCOC` was tested, and the GI50 [1] was > 100 µM (inactive), the GI50 [2] was > 100 µM (inactive) and the GI50 [3] was > 100 µM (inactive). For the same compound, the GI50 [4] was > 100 µM (inactive), the GI50 [5] was > 100 µM (inactive) and the GI50 [6] was > 100 µM (inactive). The GI50 [7] was > 100 µM (inactive), the GI50 [8] was > 100 µM (inactive) and the GI50 [9] was > 100 µM (inactive). The GI50 [10] was > 100 µM (inactive), the GI50 [11] was > 100 µM (inactive) and the GI50 [12] was > 100 µM (inactive). The GI50 [13] was > 100 µM, the GI50 [14] was > 100 µM (inactive) and the GI50 [15] was > 100 µM (inactive). The GI50 [16] was > 100 µM (inactive), the GI50 [17] was > 100 µM (inactive) and the GI50 [18] was > 100 µM (inactive). For the same compound, the GI50 [19] was > 100 µM (inactive), the GI50 [20] was > 100 µM (inactive) and the GI50 [21] was > 100 µM (inactive). The GI50 [22] was > 100 µM (inactive), the GI50 [23] was > 100 µM (inactive) and the GI50 [24] was > 100 µM (inactive). The GI50 [25] was > 100 µM (inactive), the GI50 [26] was > 100 µM (inactive) and the GI50 [27] was > 100 µM (inactive). For the same compound, the GI50 [28] was > 100 µM (inactive), the GI50 [29] was > 100 µM (inactive) and the GI50 [30] was > 100 µM (inactive). For the same compound, the GI50 [31] was > 100 µM (inactive), the GI50 [32] was > 100 µM (inactive) and the GI50 [33] was > 100 µM (inactive). For the same compound, the GI50 [34] was > 100 µM (inactive), the GI50 [35] was > 100 µM (inactive) and the GI50 [36] was > 100 µM (inactive). For the same compound, the GI50 [37] was > 100 µM (inactive), the GI50 [38] was > 100 µM (inactive) and the GI50 [39] was > 100 µM (inactive). For the same compound, the GI50 [40] was > 100 µM (inactive), the GI50 [41] was > 100 µM (inactive) and the GI50 [42] was > 100 µM (inactive). For the same compound, the GI50 [43] was > 100 µM (inactive), the GI50 [44] was > 100 µM (inactive) and the GI50 [45] was > 100 µM (inactive). The GI50 [46] was > 100 µM (inactive), the GI50 [47] was > 100 µM (inactive) and the GI50 [48] was > 100 µM (inactive). For the same compound, the GI50 [49] was > 100 µM (inactive), the GI50 [50] was > 100 µM (inactive) and the GI50 [51] was > 100 µM (inactive). For the same compound, the GI50 [52] was > 100 µM (inactive), the GI50 [53] was > 100 µM (inactive) and the GI50 [54] was > 100 µM (inactive). For the same compound, the GI50 [55] was > 100 µM (inactive), the GI50 [56] was > 100 µM (inactive) and the GI50 [57] was > 100 µM (inactive). For the same compound, the GI50 [58] was > 100 µM (inactive) and the GI50 [59] was > 100 µM (inactive).
In the case of `Cc1ccc(CNNC(=O)c2cc[n+]([BH2-]C#N)cc2)cc1`, the GI50 [1] is reported as > 100 µM (inactive), the GI50 [2] is reported as 15.6 µM (inactive) and the GI50 [3] is reported as 95.7 µM (inactive). For the same compound, the GI50 [4] was 11.3 µM (inactive), the GI50 [5] was > 100 µM (inactive) and the GI50 [6] was > 100 µM (inactive). The GI50 [7] was 26.3 µM (inactive), the GI50 [8] was > 100 µM (inactive) and the GI50 [9] was > 100 µM (inactive). For the same compound, the GI50 [10] was 87.7 µM (inactive), the GI50 [11] was > 100 µM (inactive) and the GI50 [12] was > 100 µM (inactive). The GI50 [13] was > 100 µM, the GI50 [14] was 83.8 µM (inactive) and the GI50 [15] was > 100 µM (inactive). The GI50 [16] was > 100 µM (inactive), the GI50 [17] was > 100 µM (inactive) and the GI50 [18] was 48.5 µM (inactive). For the same compound, the GI50 [19] was > 100 µM (inactive), the GI50 [20] was 49.2 µM (inactive) and the GI50 [21] was > 100 µM (inactive). For the same compound, the GI50 [22] was > 100 µM (inactive), the GI50 [23] was > 100 µM (inactive) and the GI50 [24] was 18.1 µM (inactive). The GI50 [25] was 99.3 µM (inactive), the GI50 [26] was > 100 µM (inactive) and the GI50 [27] was > 100 µM (inactive). The GI50 [28] was 71.3 µM (inactive), the GI50 [29] was > 100 µM (inactive) and the GI50 [30] was > 100 µM (inactive). For the same compound, the GI50 [31] was > 100 µM (inactive), the GI50 [32] was > 100 µM (inactive) and the GI50 [33] was 95.5 µM (inactive). The GI50 [34] was > 100 µM (inactive), the GI50 [35] was > 100 µM (inactive) and the GI50 [36] was > 100 µM (inactive). The GI50 [37] was > 100 µM (inactive), the GI50 [38] was > 100 µM (inactive) and the GI50 [39] was 84.9 µM (inactive). The GI50 [40] was > 100 µM (inactive), the GI50 [41] was > 100 µM (inactive) and the GI50 [42] was > 100 µM (inactive). For the same compound, the GI50 [43] was > 100 µM (inactive), the GI50 [44] was > 100 µM (inactive) and the GI50 [45] was > 100 µM (inactive). For the same compound, the GI50 [46] was > 100 µM (inactive), the GI50 [47] was > 100 µM (inactive) and the GI50 [48] was > 100 µM (inactive). The GI50 [49] was > 100 µM (inactive), the GI50 [50] was > 100 µM (inactive) and the GI50 [51] was 72.6 µM (inactive). The GI50 [52] was > 100 µM (inactive), the GI50 [53] was > 100 µM (inactive) and the GI50 [54] was > 100 µM (inactive). For the same compound, the GI50 [55] was > 100 µM (inactive), the GI50 [56] was > 100 µM (inactive) and the GI50 [57] was > 100 µM (inactive). The GI50 [58] was 17.1 µM (inactive) and the GI50 [59] was > 100 µM (inactive).
For `Oc1cccc2ccc(SSc3ccc4cccc(O)c4n3)nc12`, the GI50 [1] was 18.2 µM (inactive), the GI50 [2] was 19.2 µM (inactive) and the GI50 [3] was 31 µM (inactive). The GI50 [4] was 15.1 µM (inactive), the GI50 [5] was 21.1 µM (inactive) and the GI50 [6] was 18.5 µM (inactive). The GI50 [7] was 3.36 µM (inactive), the GI50 [8] was 18.8 µM (inactive) and the GI50 [9] was 73.1 µM (inactive). For the same compound, the GI50 [10] was 29.3 µM (inactive), the GI50 [11] was 5.56 µM (inactive) and the GI50 [12] was 18.2 µM (inactive). The GI50 [13] was 22.3 µM, the GI50 [14] was 22.8 µM (inactive) and the GI50 [15] was 17.7 µM (inactive). For the same compound, the GI50 [16] was 23 µM (inactive), the GI50 [17] was 18.7 µM (inactive) and the GI50 [18] was 31.4 µM (inactive). The GI50 [19] was 24.7 µM (inactive), the GI50 [20] was 29.2 µM (inactive) and the GI50 [21] was 13.7 µM (inactive). The GI50 [22] was 18.2 µM (inactive), the GI50 [23] was 16 µM (inactive) and the GI50 [24] was 5.89 µM (inactive). For the same compound, the GI50 [25] was 16.7 µM (inactive), the GI50 [26] was 19 µM (inactive) and the GI50 [27] was 17.5 µM (inactive). For the same compound, the GI50 [28] was 9.59 µM (inactive), the GI50 [29] was 16 µM (inactive) and the GI50 [30] was > 100 µM (inactive). For the same compound, the GI50 [31] was 16.9 µM (inactive), the GI50 [32] was 19.3 µM (inactive) and the GI50 [33] was 15.8 µM (inactive). For the same compound, the GI50 [34] was 26.1 µM (inactive), the GI50 [35] was 16.1 µM (inactive) and the GI50 [36] was 16.1 µM (inactive). The GI50 [37] was 19.4 µM (inactive), the GI50 [38] was 19.1 µM (inactive) and the GI50 [39] was 16.3 µM (inactive). The GI50 [40] was 26.1 µM (inactive), the GI50 [41] was 16 µM (inactive) and the GI50 [42] was 25.3 µM (inactive). The GI50 [43] was 16.6 µM (inactive), the GI50 [44] was 19.8 µM (inactive) and the GI50 [45] was 20.7 µM (inactive). The GI50 [46] was 19.1 µM (inactive), the GI50 [47] was 33.5 µM (inactive) and the GI50 [48] was 16.3 µM (inactive). The GI50 [49] was 17.9 µM (inactive), the GI50 [50] was > 100 µM (inactive) and the GI50 [51] was 14.7 µM (inactive). For the same compound, the GI50 [52] was 23.9 µM (inactive), the GI50 [53] was 25.4 µM (inactive) and the GI50 [54] was 13.2 µM (inactive). The GI50 [55] was 20.1 µM (inactive), the GI50 [56] was 16.4 µM (inactive) and the GI50 [57] was 20.2 µM (inactive). The GI50 [58] was 17.4 µM (inactive) and the GI50 [59] was 25.8 µM (inactive).
